Entries after “also recorded” stand apart in the source; their conditions may differ.
How the values were obtained:
Type in all cases: cell-based
[1] = test system: iNOS; assay: iNOS expression in LPS-induced RAW264.7 cells (quantitative real-time PCR and Western blotting); conditions: LPS-induced RAW264.7 macrophages; qPCR and Western blotting; compound 1 at 4 μM compared with dexamethasone
Experimental: (§1) RAW264.7 cells were seeded in a six-well plate (10 × 10^5 cells/well) for the indicated time. Cells were pretreated with compound 1 (0.5, 1, and 4 μM) for 1 h and then stimulated with LPS (1 ug/mL) for 18 h. Total cellular RNA was extracted with Trizol reagent (TIANGEN, Beijing, China). One microgram of RNA per sample was reverse-transcribed into cDNA using the PrimeScript RT Reagent Kit (TAKARA, Dalian, China). qPCR assays were performed by the CFX96 Touch Real-Time PCR Detection System (Bio-Rad). The following primers were used: iNOS (forward, 5′-AAACCCCAGGTGCTATTCCC-3′; reverse, 5′-TGGGTCCTCTGGTCAAACTC-3′), COX-2 (forward, 5′-ATTCCAAACCAGCAGACTCATA-3′; reverse, CTTGAGTTTGAAGTGGTAACCG-3′), and GAPDH (forward, 5′- GTCATTGAGAGCAATGCCAG-3′; reverse, 5′-GTGTTCCTACCCCCAATGTG-3′). […]
(§2) RAW264.7 cells with the indicated treatment were harvested and treated in a RIPA lysis buffer (Beyotime, Shanghai, China) containing a protease and phosphatase inhibitor cocktail (Beyotime, Shanghai, China) to obtain the lysates. Then, the total proteins were measured using the bicinchoninic acid (BCA) protein assay kit (Beyotime, Shanghai, China) and regulated by a loading buffer and the RIPA lysis buffer. […] Finally, the protein bands were detected using the ImageJ software (Bio-Rad, Hercules, CA, United States).

[2] = test system: COX-2; assay: COX-2 expression in LPS-induced RAW264.7 cells (quantitative real-time PCR and Western blotting); conditions: LPS-induced RAW264.7 macrophages; qPCR and Western blotting; compound 1 at 4 μM compared with dexamethasone
Experimental: as §1, §2

[3] = Cytotoxicity against RAW264.7 cells (CCK8); conditions: mouse, 24 h incubation, 3.125–200 μM
Experimental: For the cytotoxicity assay, RAW 264.7 cells were grown in DMEM containing 10% FBS and cultured at 37°C. Then, the cells were seeded in a 96-well plate (1 × 10^4 cells/well) before the cells were incubated for 24 h in various concentrations of compounds (3.125–200 μM). Cell viability was examined using a CCK8-kit. The CCK8 solution (5 µl) was added to each well and incubated for 1–2 h at 37°C. The OD value at 450 nm was quantified by Graphpad software, and the corresponding 50% cytotoxic concentration (CC50) of the compounds was subsequently obtained.

[4] = test system: NO production in LPS-induced RAW264.7 cells; assay: Inhibition of NO production in LPS-induced RAW264.7 macrophages (Griess reagent); conditions: for IC50: Mus musculus, RAW264.7, pretreated 1 h with compounds (0.25–4 μM), LPS 1 μg/ml 18 h, Mean ± SD, read-out: IC50 (μM), NO inhibition toward LPS-induced RAW264.7 cells
Experimental: The level of accumulated nitrite in the culture media reflected the level of NO using the classic Griess reagent (Beyotime, Jiangsu, China). The RAW264.7 cells were seeded in a 96-well plate with a 6 ×10^4 cells/ml density for the indicated time. Then, the cells were pretreated for 1 h with test compounds (0.25–4 μM), followed by stimulation with LPS (1 μg/ml) for 18 h. Finally, 50 ul of the culture supernatant was mixed with an equal amount of the Griess reagent, and the optical densities at 570 nm were read using a microplate reader. The nitric oxide concentration of the samples was calculated according to the standard curve.

SMILES	expression of iNOS [1]	expression of COX-2 [2]	CC50 at 24 h [3] [µM]	NO production inhibitory effect, in words (ranking / comparison with positive control dexamethasone) ([4]; LPS-stimulated RAW264.7 cells)	IC50 [4] [µM]
C=C1C(=O)O[C@H]2[C@H]1[C@@H](OC(=O)/C(C)=C\C)C=C(C)[C@]1(O)CC=C(C)[C@H]21 [Compound 1, Artemvulactone H]	reduced more expressions of iNOS and COX-2 than the positive drug; also recorded: suppressed	reduced more expressions of iNOS and COX-2 than the positive drug; also recorded: suppressed	> 10	most active	1.1 ± 0.1
C=C1C(=O)O[C@@H]2[C@H]3C(C)=CC(=O)C3=C(C)CC[C@@H]12 [Compound 20, dehydroleucodine]			> 70		1.8 ± 0.1
C=C1C(=O)O[C@H]2[C@H]1[C@@H](OC(=O)C(C)C)C=C(C)[C@]1(O)C[C@H]3O[C@@]3(C)[C@H]21 [Compound 8, Artemvulactone O]			> 20		3.2 ± 0.1
C[C@@H]1C[C@H]2[C@@H]3CCC4=CC(=O)C=C[C@]4(C)[C@@]3(F)[C@@H](O)C[C@]2(C)[C@@]1(O)C(=O)CO [Dexamethasone, reference compound]					4.3 ± 0.3
C=C1C(=O)O[C@H]2[C@H]1[C@@H](OC(=O)C=C(C)C)CC(=C)[C@]1(O)CC=C(C)[C@H]21 [Compound 14, 1α-hydroxy-8α-senecioyloxy-3(4),10(14),11(13)-trienguai-12,6α-olide]			> 15		1.4 ± 0.2
C=C1C(=O)O[C@H]2[C@H]1[C@@H](OC(=O)C(C)C)CC(=C)[C@]1(O)C[C@H]3O[C@@]3(C)[C@H]21 [Compound 6, Artemvulactone M]			> 20		3.1 ± 0.1
C=C1C(=O)O[C@H]2[C@H]1[C@@H](OC(=O)/C(C)=C\C)CC(=C)[C@]1(O)CC=C(C)[C@H]21 [Compound 7, Artemvulactone N]			> 20		2.1 ± 0.6
C=C1C(=O)O[C@H]2[C@H]1[C@@H](OC(=O)C(C)CC)CC(=C)[C@]1(O)CC=C(C)[C@H]21 (stereo partly drawn) [Compound 13, 1α-hydroxy-8α-methylbutyroxy-3(4),10(14),11(13)-trienguai-12,6α-olide]			> 15		1.5 ± 0.1
C=C1C(=O)OC2C1C(OC(=O)CC)CC(C)(OC)C1C(=O)C=C(C)C21 (stereo not drawn) [Compound 10, Artemvulactone Q]			> 10		2.1 ± 0.1
C=C1C(=O)O[C@H]2[C@H]1[C@@H](OC(=O)CC(C)C)CC(=C)[C@]1(O)C[C@H]3O[C@@]3(C)[C@H]21 [Compound 19, 3α,4α-epoxyrupicolin E]			> 25		1 ± 0.2
C=C1C(=O)OC2C1CCC(C)(O)C1(O)C(Cl)C3OC3(C)C21 (stereo not drawn) [Compound 12, Artemvulactone S]			> 40		2.7 ± 0.5
C=C1C(=O)O[C@@H]2[C@H]3C(C)=CC(=O)C3=C(C)C[C@H](OC(=O)CC)[C@@H]12 [Compound 9, Artemvulactone P]			> 20		1.9 ± 0.8
C=C1CC(OC(=O)C(C)=CC)C2C(C)C(=O)OC2C2C(C)=CCC12O (stereo not drawn) [Compound 5, Artemvulactone L]			> 100		> 10
C=C1C(=O)O[C@H]2[C@H]1[C@@H](OC(=O)/C(C)=C\C)CC(=C)[C@]1(O)C[C@H]3O[C@@]3(C)[C@H]21 [Compound 16, 8-angeloyloxy-1α-hydroxy-3α, 4α-epoxy-5α, 7αH-10(14), 11(13)-guaiadien-12,6α-olide]			> 10		1.1 ± 0.2
C=C1C(=O)O[C@H]2[C@H]1[C@@H](OC(C)=O)CC(C)=C1C[C@H]3O[C@@]3(C)[C@@H]12 [Compound 21, (+)-Arteglasin A]			> 20		1.2 ± 0.2
C=C1C(=O)O[C@H]2[C@H]1[C@@H](OC(=O)C(C)C)C=C(C)[C@]1(O)CC=C(C)[C@H]21 [Compound 18, 8-epi-isobutyrylrupicolin]			> 20		1.1 ± 0.1
C=C1C(=O)O[C@@H]2[C@H]3C(C)=CC(=O)C3=C(C)C[C@H](OC(C)=O)[C@@H]12 [Compound 22, Dehydromatricarin]			> 10		1.8 ± 0.2
C=C1C(=O)O[C@H]2[C@H]1[C@@H](OC(=O)CC)C=C(C)[C@]1(O)C[C@H]3O[C@@]3(C)[C@H]21 [Compound 11, Artemvulactone R]			> 15		1.9 ± 0.4
C=C1C(=O)O[C@H]2[C@H]1[C@@H](OC(=O)C(C)CC)C=C(C)[C@]1(O)CC=C(C)[C@H]21 (stereo partly drawn) [Compound 2, Artemvulactone I]			> 10		1.2 ± 0.3
C=C1C(=O)O[C@H]2[C@H]1[C@@H](OC(=O)C(C)C)CC(=C)[C@]1(O)CC=C(C)[C@H]21 [Compound 17, 8-epi-isobutyrylrupicolin B]			> 20		1.5 ± 0.1
C=C1C(=O)O[C@H]2[C@H]1[C@@H](OC(=O)CC(C)C)CC(=C)[C@]1(O)CC=C(C)[C@H]21 [Compound 4, Artemvulactone K]			> 20		3.6 ± 0.1
C=C1C(=O)O[C@H]2[C@H]1[C@@H](OC(=O)/C(C)=C/C)CC(=C)[C@]1(O)CC=C(C)[C@H]21 [Compound 15, 8-epi-Tiglylrupicolin B]			> 10		1.2 ± 0.1
C=C1C(=O)O[C@H]2[C@H]1[C@@H](OC(=O)CC(C)C)C=C(C)[C@]1(O)CC=C(C)[C@H]21 [Compound 3, Artemvulactone J]			> 10		2.8 ± 0.1

— publication PMC9475137, “Sesquiterpene lactones from Artemisia vulgaris L. as potential NO inhibitors in LPS-induced RAW264.7 macrophage cells” (Frontiers in Chemistry, 2022)
